Reference: patent US6239134A, “Diazole derivatives as serotonergic agents” (American Home Products Corp., priority 2000, dated 2001)
Structures can show the parent of a compound that is named as a salt. Where two headings read alike, the source gives them in different places.

Experiments:
human 5HT1A receptor [1] = molecular target: T1, human 5HT1A receptor (Homo sapiens, UniProt P08908); assay: 5-HT1A Receptor Intrinsic Activity Assay (agonist mode; reversal of stimulated cAMP in stably transfected CHO cells); assay type: cell-based; details: read-out: cAMP Emax
T1 construct: expressed in transfected cells; host or cells: CHO cells, stably transfected
T1 sequence (P08908 1-422): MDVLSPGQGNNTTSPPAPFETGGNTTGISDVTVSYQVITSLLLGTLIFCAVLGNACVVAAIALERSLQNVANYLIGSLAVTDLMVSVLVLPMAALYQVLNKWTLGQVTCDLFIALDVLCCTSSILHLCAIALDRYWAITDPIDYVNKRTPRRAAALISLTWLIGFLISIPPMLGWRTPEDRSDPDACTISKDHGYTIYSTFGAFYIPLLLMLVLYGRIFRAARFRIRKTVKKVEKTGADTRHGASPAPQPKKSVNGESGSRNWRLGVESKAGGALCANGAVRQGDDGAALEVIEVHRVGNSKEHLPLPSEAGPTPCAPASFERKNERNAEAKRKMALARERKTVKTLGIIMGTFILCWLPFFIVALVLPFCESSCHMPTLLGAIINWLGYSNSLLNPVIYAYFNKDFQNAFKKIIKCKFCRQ
Experimental: 5-HT1A Receptor Intrinsic Activity Assay
The intrinsic activity of compounds of the present invention was established by testing the claimed compounds ability to reverse the stimulation of cyclic adenosinemonophosphate (cAMP) in CHO cells stably transfected with the human 5-HT1A receptor.
Stably transfected CHO cells were grown in DMEM containing 10% heat inactivated FBS and non-essential amino acids. The cells are plated at a density of […] per well in a 24 well plate and incubated for 2 days in a CO2 incubator. On the second day, the media is replaced with 0.5 mL treatment buffer (DMEM+25 mM HEPES, 5 mM theophylline, […] pargyline) and incubated for 10 minutes at 37° C. Wells are treated with forskolin ([…]) followed immediately by the test compound ([…] for initial screen) and incubated for an additional 10 minutes at 37° C. The reaction is terminated by removal of the media and addition of 0.5 mL ice cold assay buffer (supplied in the RIA kit). Plates are stored at -20° C. prior to assessment of cAMP formation by RIA. EC50 values are determined for the active test compounds. Compounds shown to have no agonist activities (Emax=0%) are further analyzed for their ability to reverse agonist induced activity. In separate experiments, 6 concentrations of antagonist are preincubated for 20 minutes prior to the addition of agonist and forskolin. Cells are harvested as described above. The cAMP kit is supplied by Amersham and the RIA is performed as per kit instructions, and calculations of IC50 performed by GraphPad Prism.

human 5HT1A receptor [2] = molecular target: T1, human 5HT1A receptor; assay: 5-HT1A Receptor Binding Assay (displacement of [3H] 8-OH-DPAT in stably transfected CHO cells); details: @ 1 _M, single point assay
Experimental: 5-HT1A Receptor Binding Assay
High affinity for the serotonin 5-HT1A receptor was established by testing the claimed compound's ability to displace [3H] 8-OH-DPAT binding in CHO cells stably transfected with the human 5HT1A receptor. Stably transfected CHO cells are grown in DMEM containing 10% heat inactivated FBS and non-essential amino acids. Cells are scraped off the plate, transferred to centrifuge tubes, and washed twice by centrifugation (2000 rpm for 10 min., 4° C.) in buffer (50 mM Tris pH 7.5). The resulting pellets are aliquoted and placed at -80° C. On the day of assay, the cells are thawed on ice and resuspended in buffer. The binding assay is performed in a 96 well microtiter plate in a total volume of […]. Non-specific binding is determined in the presence of […], final ligand concentration is 1.5 nM. Following a 30 minute incubation at room temperature, the reaction is terminated by the addition of ice cold buffer and rapid filtration through a GF/B filter presoaked for 30 minutes in 0.5% PEI. Compounds are initially tested in a single point assay to determine percent inhibition at […], and Ki values are determined for the active compounds.

[3] = forskolin-stimulated cAMP, CHO cells

SMILES: O=C(N[C@@H](Cc1ccccc1)CN1CCN(c2nsnc2Cl)CC1)C1CCCCC1 [Compound 4, Cyclohexanecarboxylic acid {(1S)-1-benzyl-2-(4-(4-chloro[1,2,5}thiadiazol-3-yl)piperazin-1-yl]ethyl}amide fumarate]
- Emax (human 5HT1A receptor [1]; CHO): 93%

SMILES: COc1nsnc1N1CCN(C[C@@H](Cc2cccnc2)NC(=O)C2(C)CCCCC2)CC1 [Compound 11, 1-Methylcyclohexanecarboxylic acid {(1R)-2-[4-(4-methoxy-[1,2,5]thiadiazol-3-yl)-piperazin-1-yl]-1-pyridin-3-ylmethylethyl}amide]
- Emax (human 5HT1A receptor [1]; [3]): 0%

SMILES: CN(C(=O)C1CCCCC1)[C@H](Cc1ccccc1)CN1CCN(c2nsnc2Cl)CC1 [Compound 7]
- Emax (human 5HT1A receptor [1]; [3]): 0%

SMILES: O=C(N[C@@H](Cc1ccccc1)CN1CCN(c2nsnc2Cl)CC1)c1ccccn1 [Compound 6, Pyridine-2-carboxylic acid {(1S)-1-benzyl-2,3-[4(4-chloro[1,2,5]thiadiazol-3-yl)piperazin-1-yl]ethyl}amide]
- 5-HT1A binding, percent inhibition (human 5HT1A receptor [2]): 47%

SMILES: COc1nsnc1N1CCN(C[C@@H](Cc2ccccc2)N(C)C(=O)C2CCCCC2)CC1 [Compound 8, Cyclohexanecarboxylic acid {(1R)-1-benzyl-2-[4-(4-methoxy-[1,2,5]thiadiazol-3-yl)-piperazine-1-yl]ethyl}methyl amide]
- Emax (human 5HT1A receptor [1]; [3]): 0%
